Experiment: not given
Conditions: solvent 2-ethyl hexyl para-methoxy cinnamate; cited from earlier work

Row | Compound | dissolves in 2-ethyl hexyl para-methoxy cinnamate [%]
1 | CCCCCCOC(=O)c1ccccc1C(=O)c1ccc(N(CC)CC)cc1O [diethyl amino hydroxy benzoyl hexyl benzoate] | 42

Same assay, conditions: solvent cyclomethicone (volatile silicone); cited from earlier work

Row | Compound | dissolves in cyclomethicone [%]
2 | CCCCCCOC(=O)c1ccccc1C(=O)c1ccc(N(CC)CC)cc1O [diethyl amino hydroxy benzoyl hexyl benzoate] | 0.4

Same assay, conditions: solvent octyl para-methoxy cinnamate; cited from earlier work

Row | Compound | dissolves in octyl para-methoxy cinnamate
3 | CCCCCCOC(=O)c1ccccc1C(=O)c1ccc(N(CC)CC)cc1O [diethyl amino hydroxy benzoyl hexyl benzoate] | up to 42 percent by mass

Experiment: Low-temperature behaviour of octyl hydroxy stearate monomer and oligomers (clouding point, liquid state)
Assay type: physicochemical
Conditions: not given
Excerpt: A monomer of octyl hydroxy stearate has problems in terms of stable dissolution of poorly soluble substances, while an octamer and above lead to poor self-condensing property of 12-hydroxy stearate and result in a broad distribution of molecular weight, which in turn causes unstable quality, solidification at temperatures below zero, and undesirable touch and other tactile senstations. For example, a monomer of octyl hydroxy stearate is a low-viscosity oil which is non-sticky and has a clean touch and also offers excellent oxidization stability. However, its clouding point is high, or at approx. 20° C., and thus crystal generates in the solution or the entire formulation solidifies in winter, resulting in markedly lower feeling of use and other problems such as the formulation not coming out of the container due to an increased viscosity. An octamer has similar problems. A dimer of octyl hydroxy stearate is structurally a monomer with one more molecule unit. However, it has substantially different chemical properties.

Row | Compound | clouding point
4 | CCCCCCC(O)CCCCCCCCCCC(=O)OCC(CC)CCCC (centres unmarked) [Component 16, Octyl hydroxyl stearate (monomer)] | approx. 20 °C

Same assay, conditions: 5° C.

Row | Compound | state at 5° C.
5 | Octyl hydroxyl stearate oligomer (dimmer) [Component 1] | remains permanently liquid

Experiment: Check for precipitation of crystal in 1:1 mixtures of oil solution and diethyl amino hydroxy benzoyl hexyl benzoate kept at 5° C.
Assay type: physicochemical
Set-up: key to Evaluation results 1 week / Evaluation results Following day / Evaluation results Same day: X: Evaluation results accompanied by an x in Table 2 indicate that crystal had precipitated at the applicable point in time
Conditions: 1:1 by mass with diethyl amino hydroxy benzoyl hexyl benzoate, heated to 80° C., cooled, kept at 5° C.; checked after half a day
Excerpt: Evaluation results accompanied by an x in Table 2 indicate that crystal had precipitated at the applicable point in time.

Row | Compound | Evaluation results Same day
6 | CC(C)CCCC(C)CCCC(C)CCCCC(C)CCCC(C)CCCC(C)C (centres unmarked) [Component 26, Squalane] | X
7 | DPG [Component 22] | X

Results, then the compound that gave them:

Row | Evaluation results Same day | Compound
8 | X | OCC(O)CO [Component 31, Glycerin]
9 | X | CCCCCCCCCCCCCCCC(=O)OC(C)C [Component 33, Isopropyl palmitate]
10 | X | CCCCCCCCCCCCCC(=O)OCC(CCCCCCCC)CCCCCCCCCC (centres unmarked) [Component 34, Octyl dodecyl myristate]
11 | X | CCCCCCCC(=O)OCC(C)(C)COC(=O)CCCCCCC [Component 53, Neopentyl glycol dicaprylate]
12 | X | CCCCCCCCOC(=O)OCCCCCCCC [Component 57, Dicapryl carbonate]
13 | X | COc1ccc(C(=O)c2ccccc2)c(O)c1 [Component 59, Benzophenone-3]
14 | X | CCCCCCCCCCCCCCCCCCO [Component 61, Stearyl alcohol]
15 | X | Cyclomethicone [Component 64]

Same assay, conditions: 1:1 by mass with diethyl amino hydroxy benzoyl hexyl benzoate, kept at 5° C.; checked after one day

Row | Compound | Evaluation results Following day
16 | CC(C)CCCCCCCCCCOC(=O)CCCCCC(C)C [Component 17, Isotridecyl isononanate] | X
17 | CCO [Component 18, Ethanol (99%)] | X
18 | CCCCCCCCCCCCCCCCOC(=O)C(CC)CCCC (centres unmarked) [Component 19, Cetyl ethyl hexanoate] | X
19 | CCCCCCCCCCCCCCCC(=O)OCC(CC)CCCC (centres unmarked) [Component 20, Ethyl hexyl palmitate] | X
20 | CCCCC(CC)C(=O)OCC(COC(=O)C(CC)CCCC)OC(=O)C(CC)CCCC (centres unmarked) [Component 21, Glycerin tri 2-ethyl hexanoate] | X
21 | CC(C)CCCCCCOC(=O)CCCCCC(C)C [Component 25, Isononyl isononanate] | X
22 | CCCCCCCCCCC(CO)CCCCCCCC (centres unmarked) [Component 29, Octyl dodecanol] | X
23 | CC(O)CCO (centres unmarked) [Component 32, 1,3-BG] | X
24 | DPG [Component 22] | X
25 | Erythrityl triethyl hexanoate [Component 45] | X
26 | Glycerin tri (capryl/caprate) [Component 28] | X

Results, then the compound that gave them:

Row | Evaluation results Following day | Compound
27 | X | CCCCCCCC(=O)OCC(C)OC(=O)CCCCCCC (centres unmarked) [Component 30, Propylene glycol dicaprylate]
28 | X | CCCCC(CC)C(=O)OCC(CC)(CO)COCC(CC)(COC(=O)C(CC)CCCC)COC(=O)C(CC)CCCC (centres unmarked) [Component 44, Ditrimethylol propane triethyl hexanoate]
29 | X | CC(C)CCCCCCCCCCCCCCCOC(=O)CC(O)C(=O)OCCCCCCCCCCCCCCCC(C)C (centres unmarked) [Component 47, Diisostearyl malate]
30 | X | CCCCC(CC)C(=O)OCC(COC(=O)C(CC)CCCC)OC(=O)C(CC)CCCC (centres unmarked) [Component 50, Triethyl hexanoin]
31 | X | CCCCC(CC)C(=O)OCC(C)(C)COC(=O)C(CC)CCCC (centres unmarked) [Component 51, Neopentyl glycol diethyl hexanoate]
32 | X | CCCCCCCCCCC(CCCCCCCC)COC(=O)C(C)O (centres unmarked) [Component 52, Octyl dodecyl lactate]
33 | X | CCCCCCCCOCCCCCCCC [Component 58, Dioctyl ether]
34 | X | C12-15 alkyl benzoate [Component 62]
35 | X | Diglyceryl tetraisostearate [Component 49]
36 | X | Ditrimethylol propane (isostearate/sebacate) [Component 46]
37 | X | Sorbitan isostearate [Component 36]
38 | X | Sorbitan sesquioleate [Component 35]

Same assay, conditions: 1:1 by mass with diethyl amino hydroxy benzoyl hexyl benzoate, kept at 5° C.; checked after one week

Row | Compound | Evaluation results 1 week
39 | CCCCCCC(O)CCCCCCCCCCC(=O)OCC(CC)CCCC (centres unmarked) [Component 16, Octyl hydroxyl stearate (monomer)] | X
40 | CCCCC(CC)COC(=O)/C=C/c1ccc(OC)cc1 (centres unmarked) [Component 56, Ethyl hexyl para-methoxy cinnamate] | X

Same assay, conditions: 1:1 by mass with diethyl amino hydroxy benzoyl hexyl benzoate, kept at 5° C.; checked after six months

Row | Compound | Evaluation results 6 months
41 | Octyl hydroxyl stearate oligomer (dimmer) [Component 1] | ◯
42 | Octyl hydroxyl stearate oligomer (heptamer) [Component 6] | ◯
43 | Octyl hydroxyl stearate oligomer (hexamer) [Component 5] | ◯
44 | Octyl hydroxyl stearate oligomer (pentamer) [Component 4] | ◯
45 | Octyl hydroxyl stearate oligomer (tetramer) [Component 3] | ◯
46 | Octyl hydroxyl stearate oligomer (trimer) [Component 2] | ◯

Same assay, conditions: summary of Table 2, 5° C.

Row | Compound | precipitation of crystal / stability of the 1:1 mixture, in words
47 | CCCCCCC(O)CCCCCCCCCCC(=O)OCC(CC)CCCC (centres unmarked) [Component 16, Octyl hydroxyl stearate (monomer)] | crystal precipitated after one week

Source: US8198335B2, “Cosmetic material” (Parahermosa Co., Ltd., priority 2009, dated 2012)
